Calls of active or inactive are those of the source.
Columns and labels:
[1] = system: INS1; test: INS-1E survival protection against cytokine death – cell-based, luminescence, retest, dose response (AID 449756); format: functional; conditions: Rattus norvegicus;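 also: cell death triggered by IL-1 beta plus TNF-alpha plus IFN-gamma mixture; protective hits raise ATP signal compared with cytokine alone wells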
[2] = target: Tumor necrosis factor (Homo sapiens, UniProt P01375); test: analog potency on TNFa NF-kB signaling – cell-based, revised, SAR follow-up (AID 2337); format: functional
[3] = system: HEK293; test: cells; conditions: Homo sapiens;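 also: cells exposed to compound for 14 hours overnight before viability readout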
[4] = target: Nucleotide-binding oligomerization domain-containing protein 1 (Homo sapiens, UniProt Q9Y239); test: blockers of NOD1 pathway activity – revised, SAR follow-up (AID 2333); format: functional
[5] = target: Cytochrome P450 2D6 (Homo sapiens, UniProt P10635);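 also: CYP2D6 member of a cytochrome P450 panel assay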
[6] = THP-1 cell cytotoxicity, dose response, cytotoxicity control for non-replicating M. tuberculosis project (AID 489025); format: functional
[7] = target: T1, Replicative DNA helicase DnaB (Mycobacterium tuberculosis, UniProt P9WMR3); test: DnaB intein splicing inhibitors, dose response, biochemical, cell-free fluorescence (AID 449749); format: functional
T1 sequence (P9WMR3 whole entry): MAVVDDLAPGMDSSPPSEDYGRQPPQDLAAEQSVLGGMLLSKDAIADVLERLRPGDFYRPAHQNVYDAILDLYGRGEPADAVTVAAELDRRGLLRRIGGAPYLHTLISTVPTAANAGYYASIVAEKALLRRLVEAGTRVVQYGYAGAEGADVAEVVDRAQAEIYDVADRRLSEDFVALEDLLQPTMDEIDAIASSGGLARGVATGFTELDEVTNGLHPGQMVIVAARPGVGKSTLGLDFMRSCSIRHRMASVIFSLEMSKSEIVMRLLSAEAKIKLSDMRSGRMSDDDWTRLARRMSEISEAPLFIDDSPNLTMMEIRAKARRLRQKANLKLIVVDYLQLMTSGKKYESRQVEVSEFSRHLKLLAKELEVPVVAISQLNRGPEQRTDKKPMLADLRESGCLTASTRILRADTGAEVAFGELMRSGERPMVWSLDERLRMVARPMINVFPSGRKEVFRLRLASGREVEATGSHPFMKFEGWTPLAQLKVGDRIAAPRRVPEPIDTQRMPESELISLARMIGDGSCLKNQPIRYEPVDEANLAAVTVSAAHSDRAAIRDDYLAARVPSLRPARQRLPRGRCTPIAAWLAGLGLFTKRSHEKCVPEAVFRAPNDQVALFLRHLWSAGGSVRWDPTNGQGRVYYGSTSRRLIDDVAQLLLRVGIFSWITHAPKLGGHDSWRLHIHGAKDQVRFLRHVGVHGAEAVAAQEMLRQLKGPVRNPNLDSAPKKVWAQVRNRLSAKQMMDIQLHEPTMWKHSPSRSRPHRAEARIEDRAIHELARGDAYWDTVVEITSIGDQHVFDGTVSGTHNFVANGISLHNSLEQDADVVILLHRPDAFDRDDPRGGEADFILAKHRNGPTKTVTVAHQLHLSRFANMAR

[8] = reduction of Shn3 3'UTR-driven luciferase in osteoblasts – cell-based, Clone20 osteoblasts, firefly luciferase, cherry-picked, dose response (AID 624132); format: functional;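 also: firefly luciferase luminescence from reporter carrying the Shn3 3'UTR in osteoblasts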
[9] = target: T2, Kappa-type opioid receptor (Homo sapiens, UniProt P41145); format: functional
[10] = general cell-killing toxicity readout – plate reader, dry powder samples, cytotoxicity control for PAX8 inhibitor project, dose response (AID 743021); format: functional, cell-based
[11] = system: BJ; test: BJ-TERT fibroblast viability loss – cell-based, RAS-independent, luminescence, dose response (AID 1933); format: functional; conditions: Homo sapiens
[12] = target: T3, Delta-type opioid receptor (Homo sapiens, UniProt P41143); test: HTS Image-Based Screen for Antagonists of the DOR Receptor. [Related pubchem assays (depositor defined):AID1777, AID1785, AID1786, AID2133]; format: functional
[13] = target: T3, Delta-type opioid receptor; test: HTS Image-Based Screen for Agonists of the DOR Receptor. [Related pubchem assays (depositor defined):AID1777, AID1786, AID2133]; format: functional
[14] = target: T2, Kappa-type opioid receptor; format: functional; remark: listed apart in the source
[15] = luciferase reporter signal suppression in cells – H4 neuroglioma cells, luminescence, dose response (AID 1990); format: functional, cell-based
[16] = cells; format: functional
[17] = target: T4, Beta-galactosidase (Escherichia coli, UniProt Q8VNN2); format: functional
[18] = Luminescence Cell-Based Dose Response HTS to Identify Inhibitors of 5'UTR Stem-Loop Driven Prion Protein mRNA Translation in H4 Neuroglioblastoma Cells. [Related pubchem assays: 1827 (Project Summary), 1813 (Primary HTS)]; format: functional
[19] = DRD fibroblast viability loss – cell-based, non-viral oncogenic, luminescence, dose response (AID 1934); format: functional; conditions: Homo sapiens
[20] = target: T5, Type-1 angiotensin II receptor (Homo sapiens, UniProt P30556); test: antagonism of angiotensin II type 1 receptor – cell-based, uHTS hits, selectivity assay for APJ receptor antagonist project, dose response (AID 463214); format: functional;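 also: antagonist potency against angiotensin II stimulated AT1 response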
T5 sequence (P30556 whole entry): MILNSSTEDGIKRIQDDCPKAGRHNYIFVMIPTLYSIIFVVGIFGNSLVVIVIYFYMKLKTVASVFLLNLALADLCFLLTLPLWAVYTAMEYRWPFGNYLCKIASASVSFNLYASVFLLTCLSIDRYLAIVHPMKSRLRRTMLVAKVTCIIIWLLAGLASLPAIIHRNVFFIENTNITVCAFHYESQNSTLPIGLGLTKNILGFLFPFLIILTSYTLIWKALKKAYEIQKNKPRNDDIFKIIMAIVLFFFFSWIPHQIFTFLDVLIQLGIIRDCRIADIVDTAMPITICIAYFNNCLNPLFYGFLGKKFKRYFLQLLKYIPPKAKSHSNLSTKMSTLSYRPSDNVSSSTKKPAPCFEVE

[21] = target: T4, Beta-galactosidase; test: PubChem AID 485352; format: functional
[22] = target: Paired box protein Pax-8 (Homo sapiens, UniProt Q06710); test: PAX8 transcriptional activity inhibition in RMG-I – RMG-I cells, luciferase, cherry-pick, dose response (AID 687027); format: functional, cell-based;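 also: luciferase reporter driven by Pax8 target thyroperoxidase promoter measured by SteadyGlo luminescence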
[23] = alpha-synuclein stem-loop luciferase translation blockers – H4 neuroglioma cells, luminescence, confirmation (AID 1988); format: functional, cell-based
[24] = target: T6, Protein RecA (Mycobacterium tuberculosis, UniProt P9WHJ3); test: Fluorescence Cell-Free Homogeneous Dose Retest to Identify Inhibitors of RecA-Intein Splicing Activity. [Related pubchem assays (depositor defined):AID2097, AID2223, AID489010, AID492950]; format: functional
T6 sequence (P9WHJ3 whole entry): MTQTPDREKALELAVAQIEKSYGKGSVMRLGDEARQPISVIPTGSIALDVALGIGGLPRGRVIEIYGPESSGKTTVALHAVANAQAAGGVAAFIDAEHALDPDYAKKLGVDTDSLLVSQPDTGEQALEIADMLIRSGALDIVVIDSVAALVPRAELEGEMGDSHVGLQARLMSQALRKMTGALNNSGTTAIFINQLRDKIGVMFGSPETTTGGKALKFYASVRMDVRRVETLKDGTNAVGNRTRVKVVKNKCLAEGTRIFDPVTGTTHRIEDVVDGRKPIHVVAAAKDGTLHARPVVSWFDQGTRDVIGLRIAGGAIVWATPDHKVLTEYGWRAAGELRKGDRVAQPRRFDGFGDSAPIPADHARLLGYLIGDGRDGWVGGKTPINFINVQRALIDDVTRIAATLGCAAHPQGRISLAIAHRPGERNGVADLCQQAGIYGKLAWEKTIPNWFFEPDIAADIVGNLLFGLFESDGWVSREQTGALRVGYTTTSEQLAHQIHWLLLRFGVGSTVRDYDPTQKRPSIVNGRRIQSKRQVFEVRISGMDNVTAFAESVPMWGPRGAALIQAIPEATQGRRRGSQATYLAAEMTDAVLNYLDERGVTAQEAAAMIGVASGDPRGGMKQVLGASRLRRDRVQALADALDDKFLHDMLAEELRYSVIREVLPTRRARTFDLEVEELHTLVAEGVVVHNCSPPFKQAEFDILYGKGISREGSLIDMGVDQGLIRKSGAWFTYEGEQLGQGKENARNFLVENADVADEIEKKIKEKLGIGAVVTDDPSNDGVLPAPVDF

[25] = non-specific 3'UTR reporter inhibition in Clone20-Shn3RL – cell-based, Renilla luciferase, cherry-picked, counter-screen for Shn3 inhibitor project, dose response (AID 624133); format: functional
[26] = target: Mu-type opioid receptor (Homo sapiens, UniProt P35372); test: HTS Image-Based Screen for Agonists of the MOR Receptor. [Related pubchem assays (depositor defined):AID1777, AID1785, AID1786, AID2133]; format: functional;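 also: imaging of beta-arrestin GFP recruitment into spots after receptor activation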
[27] = system: BJ; test: cells; format: functional, cell-based; conditions: Homo sapiens
[28] = loss of viability in HepG2 cells – cell-based, CellTiter-Glo, cherry-picked, cytotoxicity control for Shn3 inhibitor project, dose response (AID 624134); format: functional
[29] = HEK-293T viability loss after treatment – luminescence, T-cell screen hits, cytotoxicity control for TCR NF-kB inhibitor project, dose response (AID 489026); format: functional, cell-based;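 also: cells exposed to compound about 14 hours before the viability readout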
[30] = system: BJ; test: BJ-TERT-LT-ST fibroblast viability loss – cell-based, RAS-independent, luminescence, dose response (AID 1935); format: functional; conditions: Homo sapiens;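 also: BJ fibroblasts immortalized with TERT plus LT and ST oncogenes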

T3 sequence (P41143 whole entry): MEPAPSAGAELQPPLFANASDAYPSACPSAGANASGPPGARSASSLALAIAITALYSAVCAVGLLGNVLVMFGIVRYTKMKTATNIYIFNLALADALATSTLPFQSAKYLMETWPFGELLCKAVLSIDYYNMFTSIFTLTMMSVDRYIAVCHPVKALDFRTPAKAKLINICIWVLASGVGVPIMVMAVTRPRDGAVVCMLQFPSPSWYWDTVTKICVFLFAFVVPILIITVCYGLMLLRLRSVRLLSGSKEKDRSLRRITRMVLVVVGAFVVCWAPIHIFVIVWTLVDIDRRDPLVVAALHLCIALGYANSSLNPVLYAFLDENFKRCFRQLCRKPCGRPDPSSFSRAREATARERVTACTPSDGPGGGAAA
T4 sequence (Q8VNN2 whole entry): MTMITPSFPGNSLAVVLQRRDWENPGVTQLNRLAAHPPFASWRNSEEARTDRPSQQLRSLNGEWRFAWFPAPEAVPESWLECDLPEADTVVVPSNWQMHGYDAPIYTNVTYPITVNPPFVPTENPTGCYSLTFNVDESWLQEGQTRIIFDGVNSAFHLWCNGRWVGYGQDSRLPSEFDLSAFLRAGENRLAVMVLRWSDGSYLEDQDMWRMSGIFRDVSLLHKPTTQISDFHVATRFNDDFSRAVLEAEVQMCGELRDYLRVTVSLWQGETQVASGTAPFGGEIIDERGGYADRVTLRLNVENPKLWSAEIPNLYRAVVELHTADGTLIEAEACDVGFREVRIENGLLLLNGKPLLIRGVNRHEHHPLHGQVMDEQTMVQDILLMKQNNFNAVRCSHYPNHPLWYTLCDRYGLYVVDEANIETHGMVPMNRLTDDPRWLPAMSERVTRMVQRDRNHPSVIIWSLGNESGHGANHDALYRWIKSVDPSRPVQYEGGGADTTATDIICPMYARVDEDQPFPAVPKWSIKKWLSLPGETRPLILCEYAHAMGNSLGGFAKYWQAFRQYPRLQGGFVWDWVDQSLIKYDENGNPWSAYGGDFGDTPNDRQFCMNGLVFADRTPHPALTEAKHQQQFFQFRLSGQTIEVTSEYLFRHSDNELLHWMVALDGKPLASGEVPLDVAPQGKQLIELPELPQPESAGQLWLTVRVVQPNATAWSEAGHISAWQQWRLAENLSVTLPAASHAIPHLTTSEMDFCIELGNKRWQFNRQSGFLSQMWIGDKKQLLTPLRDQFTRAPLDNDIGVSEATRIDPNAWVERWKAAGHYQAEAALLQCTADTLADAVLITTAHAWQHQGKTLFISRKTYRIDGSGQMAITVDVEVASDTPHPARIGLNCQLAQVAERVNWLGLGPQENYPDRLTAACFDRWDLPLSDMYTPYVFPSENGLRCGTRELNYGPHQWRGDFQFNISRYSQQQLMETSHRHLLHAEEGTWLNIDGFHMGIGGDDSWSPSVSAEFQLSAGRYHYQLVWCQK
T2 sequence (P41145 whole entry): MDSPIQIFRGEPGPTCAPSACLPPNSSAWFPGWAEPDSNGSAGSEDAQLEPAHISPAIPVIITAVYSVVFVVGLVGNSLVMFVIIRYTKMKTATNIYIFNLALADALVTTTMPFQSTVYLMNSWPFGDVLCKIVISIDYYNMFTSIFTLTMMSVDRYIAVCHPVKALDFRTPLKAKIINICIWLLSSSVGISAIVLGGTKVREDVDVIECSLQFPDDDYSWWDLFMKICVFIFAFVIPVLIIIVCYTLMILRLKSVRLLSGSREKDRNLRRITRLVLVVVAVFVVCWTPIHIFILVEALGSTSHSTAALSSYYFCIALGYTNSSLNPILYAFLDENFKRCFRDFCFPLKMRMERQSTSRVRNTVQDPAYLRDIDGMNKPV
Chain of Tumor necrosis factor (P01375 whole entry): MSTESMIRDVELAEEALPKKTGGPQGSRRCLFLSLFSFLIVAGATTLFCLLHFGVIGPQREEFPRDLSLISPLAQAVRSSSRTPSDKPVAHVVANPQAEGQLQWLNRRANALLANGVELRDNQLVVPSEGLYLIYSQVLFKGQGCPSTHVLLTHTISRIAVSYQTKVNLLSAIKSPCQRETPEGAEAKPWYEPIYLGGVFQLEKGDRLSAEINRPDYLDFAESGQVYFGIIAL
Chain of Cytochrome P450 2D6 (P10635 whole entry): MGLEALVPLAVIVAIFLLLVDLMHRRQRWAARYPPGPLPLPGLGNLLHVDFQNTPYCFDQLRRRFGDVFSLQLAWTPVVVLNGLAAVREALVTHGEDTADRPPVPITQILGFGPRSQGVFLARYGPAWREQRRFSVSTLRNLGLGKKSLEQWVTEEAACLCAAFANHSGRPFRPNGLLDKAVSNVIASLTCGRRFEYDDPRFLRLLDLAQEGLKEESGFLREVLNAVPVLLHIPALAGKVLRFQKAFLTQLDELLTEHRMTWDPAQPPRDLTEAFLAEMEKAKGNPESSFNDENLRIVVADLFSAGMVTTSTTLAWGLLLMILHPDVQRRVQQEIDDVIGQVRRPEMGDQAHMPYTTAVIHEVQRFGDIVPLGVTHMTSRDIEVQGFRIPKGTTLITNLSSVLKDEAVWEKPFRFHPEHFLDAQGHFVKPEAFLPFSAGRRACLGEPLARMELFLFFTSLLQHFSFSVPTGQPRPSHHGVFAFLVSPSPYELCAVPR
Chain of Paired box protein Pax-8 (Q06710 whole entry): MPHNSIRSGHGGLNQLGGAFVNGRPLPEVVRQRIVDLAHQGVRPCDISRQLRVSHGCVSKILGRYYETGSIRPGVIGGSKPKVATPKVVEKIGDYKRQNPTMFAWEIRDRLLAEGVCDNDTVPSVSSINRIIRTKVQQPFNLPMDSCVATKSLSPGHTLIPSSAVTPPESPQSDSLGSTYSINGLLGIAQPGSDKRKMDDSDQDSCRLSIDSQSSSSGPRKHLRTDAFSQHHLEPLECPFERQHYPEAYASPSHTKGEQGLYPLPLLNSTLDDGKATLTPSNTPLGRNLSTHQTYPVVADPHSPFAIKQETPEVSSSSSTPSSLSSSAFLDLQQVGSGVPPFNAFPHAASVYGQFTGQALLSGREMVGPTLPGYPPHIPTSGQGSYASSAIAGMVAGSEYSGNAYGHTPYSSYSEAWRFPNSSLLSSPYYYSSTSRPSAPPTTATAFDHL
Chain of Mu-type opioid receptor (P35372 whole entry): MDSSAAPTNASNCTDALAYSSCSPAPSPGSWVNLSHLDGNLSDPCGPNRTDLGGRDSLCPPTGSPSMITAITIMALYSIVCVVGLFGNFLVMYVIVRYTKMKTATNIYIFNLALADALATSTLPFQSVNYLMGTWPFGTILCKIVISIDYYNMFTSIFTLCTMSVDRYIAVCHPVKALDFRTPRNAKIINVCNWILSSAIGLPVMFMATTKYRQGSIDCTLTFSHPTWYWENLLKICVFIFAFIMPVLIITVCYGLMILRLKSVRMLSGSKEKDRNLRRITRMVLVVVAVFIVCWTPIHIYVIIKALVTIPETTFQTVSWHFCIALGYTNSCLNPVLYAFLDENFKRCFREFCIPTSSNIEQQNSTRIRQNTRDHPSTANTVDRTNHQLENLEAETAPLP
Chain of Nucleotide-binding oligomerization domain-containing protein 1 (Q9Y239 whole entry, the tested form may be a part): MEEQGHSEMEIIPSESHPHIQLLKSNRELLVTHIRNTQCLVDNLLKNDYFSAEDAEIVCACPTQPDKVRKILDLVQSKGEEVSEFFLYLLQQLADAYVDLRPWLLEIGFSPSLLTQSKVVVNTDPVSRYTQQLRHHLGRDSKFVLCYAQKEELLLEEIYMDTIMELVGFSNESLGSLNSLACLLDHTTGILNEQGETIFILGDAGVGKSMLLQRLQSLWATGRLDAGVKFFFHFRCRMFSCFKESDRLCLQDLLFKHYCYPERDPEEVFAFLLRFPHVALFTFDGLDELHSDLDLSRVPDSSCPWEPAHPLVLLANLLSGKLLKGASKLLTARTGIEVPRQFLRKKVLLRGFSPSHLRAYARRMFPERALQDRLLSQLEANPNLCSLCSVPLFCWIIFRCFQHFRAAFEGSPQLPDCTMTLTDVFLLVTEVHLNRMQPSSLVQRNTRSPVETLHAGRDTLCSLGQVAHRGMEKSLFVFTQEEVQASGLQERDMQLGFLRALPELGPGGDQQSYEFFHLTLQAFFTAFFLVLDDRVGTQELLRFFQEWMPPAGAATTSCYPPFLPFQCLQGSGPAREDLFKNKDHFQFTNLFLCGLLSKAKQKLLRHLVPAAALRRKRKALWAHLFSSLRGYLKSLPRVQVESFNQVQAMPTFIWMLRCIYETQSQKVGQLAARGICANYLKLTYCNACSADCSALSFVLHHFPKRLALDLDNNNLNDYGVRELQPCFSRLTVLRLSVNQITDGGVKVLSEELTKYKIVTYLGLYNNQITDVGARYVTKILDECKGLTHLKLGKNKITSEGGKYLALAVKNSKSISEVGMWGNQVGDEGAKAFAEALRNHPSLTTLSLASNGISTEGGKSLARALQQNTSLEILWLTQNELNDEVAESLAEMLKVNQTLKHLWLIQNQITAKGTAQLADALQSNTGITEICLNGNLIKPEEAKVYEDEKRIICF

CC(=O)c1ccc(N2CCN(S(=O)(=O)c3ccc4c(c3)CC(C)N4C(C)=O)CC2)cc1 (stereo unspecified)
active: AC50 [1] 6.79 µM | IC50 [2] 6.5 µM | IC50 [4] 4.42 µM
inactive: IC50 [3] > 20 µM

C#C[C@H](N)CCC(=O)O
inconclusive: AC50 [5]

CCS(=O)(=O)c1ncc(Cl)c(C(=O)Nc2ccc(S(=O)(=O)N(C)c3ccccc3)cc2)n1
inactive: EC50 [13] > 32 µM | EC50 [17] > 31.5 µM | EC50 [21] > 40 µM | EC50 [26] > 32 µM | IC50 [29] 59.5 µM
4.2 µM: IC50 [14]
inconclusive: EC50 [27] 6.38 µM | EC50 [30] 5.62 µM
active: CC50 [6] 10.6 µM | AC50 [7] 1.14 µM | AC50 [8] 0.308 µM | AC50 [1] 5.7 µM | IC50 [9] 6.56 µM | AC50 [10] 21.2 µM | EC50 [11] 0.784 µM | IC50 [12] 9.44 µM | IC50 [16] > 50 µM | EC50 [18] 8.51 µM | EC50 [19] 4.16 µM | IC50 [20] 3.56 µM | AC50 [22] 5.12 µM | EC50 [23] 5.71 µM | EC50 [24] 1 µM | AC50 [25] 1.91 µM | AC50 [28] 10.7 µM
> 120 µM (not active): EC50 [15]

Reference: ChEMBL document CHEMBL1201862, “PubChem BioAssay data set” (2004)
